Results published in US10197574B2, “Analyte detection using near-infrared fluorophores” (Portland State University, priority 2011, dated 2019).
Marks after values point to notes of the source that are not given here. Values belong to the molecule of their own block, whether it stands above or below them.

Legend:
[1] = Spectral properties of rhodamine bis-boronic acids and precursors (Table 5); type: physicochemical
Description: Excitation and emission spectra were normalized to their absorbance at the excitation wavelength, and are proportional to quantum yield.

[2] = Absorbance and fluorescence measured in methanol; type: physicochemical; conditions: versus analogue with known regiochemistry (8 vs 22, 15a vs 20a)
Experimental: Absorbance and fluorescence of compounds 22 and 8 also were measured in methanol. […] Thus, placement of the hydroxyl group proximal to the xanthene internal oxygen in compound 8 produced a bathochromic shift of 103 nm in the absorption spectrum. The transposition also imparted a corresponding shift in the excitation spectrum, and a large bathochromic shift of 128 nm in the fluorescence emission. Importantly, compound 8 absorbs and emits in the near-infrared with absorption and emission maxima of 701 nm and 816 nm, respectively.
Absorbance and fluorescence of compounds 20a and 15a also were measured in methanol. […] Thus, placement of the hydroxyl group proximal to the xanthene internal oxygen in compound 15a produced a bathochromic shift of 15 nm in the absorbance spectrum. The transposition also imparted a corresponding shift in the excitation spectrum, and a large bathochromic shift of 32 nm in the fluorescence emission.

[3] = Fluorescence emission spectra and Stokes shift of fluorophores (15 μM, 90% aqueous, 10% DMSO); type: physicochemical
Experimental: Compounds 21 and 7 also were characterized by their fluorescence emission spectra. Fluorescence was measured using 15 μM solutions of each compound in a solution that was 90% aqueous, 10% DMSO. For compound 21, the longest wavelength emission observed from the dianion occurred near 680 nm at pH 9. For compound 7 (transposed), the longest wavelength emission observed from the monoanion occurred near 800 nm at pH 9.
The Stokes shift of each compound was measured and determined to be about 80 nm for the compound 21 dianion, and about 150 nm for the compound 7 (transposed) monoanion.
Compounds 22 and 8 also were characterized by their fluorescence emission spectra. Fluorescence was measured using 15 μM solutions of each compound in a solution that was 90% aqueous, 10% DMSO. For compound 22, the longest wavelength emission observed from the anion occurred near 690 nm at pH 9. For compound 8 (transposed), emission was not observed. Given the greater than 800 nm absorbance peak and the typically large Stokes shifts observed in this class of compounds, it is likely that the emission was beyond the working range of the instrument (>850 nm).
The Stokes shift of each compound was measured and determined to be about 80 nm for the compound 22 anion, and unmeasurable for the compound 8 (transposed) neutral form.
Compounds 20a and 15a also were characterized by their fluorescence emission spectra. Fluorescence was measured using 15 μM solutions of each compound in a solution that was 90% aqueous, 10% DMSO. For compound 20a, the longest wavelength emission observed from its corresponding anion, compound 20c, occurred near 640 nm in NaOH (pH 12). For compound 15a (with 3-1 transposition), the longest wavelength emission observed from the corresponding anion, compound 15h, occurred near 760 nm in NaOH.
The Stokes shift of each compound was measured and determined to be about 95 nm for the compound 20c anion, and about 165 nm for the compound 15h (transposed) anion. Thus, the 3-1 transposition enhanced the Stokes shift by about 70 nm.
(§1) Compound 15b also was characterized by its fluorescence emission spectrum and compared to C.SNARF-5. Fluorescence was measured using a 15 μM solution of compound 15b in a solution that was 90% aqueous, 10% DMSO. For C.SNARF-5, the longest wavelength emission observed from the anion occurred near 632 nm (Whitaker et al., Anal. Biochem. 1991, 194, 330-344). For compound 15b (transposed), the longest wavelength emission observed from the phenoxide occurred near 770 nm.
The Stokes shift of each compound was measured and determined to be about 82 nm for the C.SNARF-5 anion, and about 155 nm for the compound 15b (transposed) phenoxide. Thus, the 3-1 transposition enhanced the Stokes shift by about 73 nm.
as §1, with “15d” for “15b”, “SNARF-1.” for “C.SNARF-5.”, “SNARF-1,” for “C.SNARF-5,”, “631” for “632”, “780 nm (NaOH, pH 12).” for “770 nm.”
The Stokes shift of each compound was measured and determined to be about 58 nm for the SNARF-1 anion, and about 150 nm for the compound 15d (transposed) phenoxide. Thus, the 3-1 transposition enhanced the Stokes shift by about 92 nm.
Compounds 20b and 15g also were characterized by their fluorescence emission spectra. Fluorescence was measured using 15 μM solutions of each compound in a solution that was 90% aqueous, 10% DMSO. For compound 20b, the longest wavelength emission observed from the cation occurred near 640 nm at pH 7.4. For compound 15g (transposed), the longest wavelength emission observed from the cation occurred near 770 nm at pH 7.4. […]

[4] = Emission in blood; design: species or system porcine
Experimental: Compound 15d (Table 1) was diluted to 40 μM in 50% DMSO:50% 25 mM pH 9 phosphate buffer. […] Emission remained stable for at least 1 hour. The absorption profile matches the output of a laser pointer (635-670 nm; max output <5 mW). NIR emission (80 μM) was clearly visible with a digital camera (Kodak EasyShare Z740) in a NIR photograph taken with 8 sec. exposure collected through a Hoya R72 camera filter (% T<1% at <690 nm, % T>90% at >750 nm).
Its absorbance and fluorescence spectra faded over time, but remained visible after about an hour (although with only 10-20% of its original emission intensity). Molecular modeling has shown favorable structural interactions of compounds 5f and 24 with glutathione (see, e.g., FIG. 20—compound 24).
Spectral behavior of compound 15g (type [c] annulated seminaphthorhodamine methyl ester (free amine) with the 3-1 transposition) was investigated to determine its potential for sensing use in whole blood. Solutions of compound 15g in 10% or 90% by volume whole blood (porcine blood in Na-EDTA, Lampire Biological Laboratories) were investigated in a 3×3 mm cell. […] Throughout much of the spectrum, the dye produces a greater absorbance than the blood alone. The change in absorbance between the two spectra provides the effective absorbance of the dye. […]

[5] = UV-visible absorbance spectroscopy of fluorophores (15 μM, 90% aqueous, 10% DMSO); type: physicochemical; conditions: for red-shift of absorbance maximum: 15a compared to 20a, anion 15h compared to anion 20c
Experimental: Compounds 20a and 15a were characterized by UV-visible spectroscopy (FIG. 25). Absorbance was measured using 15 μM solutions of each compound in a solution that was 90% aqueous, 10% DMSO. The peaks at 545 nm (light dashed line) and 595 nm (light solid line) represent the respective anions, compounds 20c and 15h, in NaOH (pH 12). The peaks at 515 nm (heavy dashed line) and 525 nm (heavy solid line) represent the predominantly neutral forms of compounds 20a and 15a at pH 6, respectively.
Although the red shift of compound 15a in methanol was modest, its corresponding anion (compound 15h) in DMSO:aqueous base 1:9 was shifted more substantially by 50 nm to […] as compared to anion 20c under the same conditions. Its fluorescence emission was shifted by an even larger […], emitting at 760 nm. The comparatively large shift of the anion 15h supports a polar effect as playing a key role in modulating the HOMO-LUMO gap in the compound. […]
Known seminaphthorhodafluors display long wavelength absorption at high pH; however, the free amino compound in this series respond to low pH with increased long wavelength absorption.

[6] = Absorbance and emission in 0.1M NaOH; type: physicochemical
Description: The absorbance and fluorescence spectra of the fluorophore typically are pH dependent. For example, the absorbance maximum for one ester derivative (compound 15d) in 0.1M NaOH is 620 nm and the emission maximum in same solvent is 770 nm. The Stokes shift in this solvent is 150 nm (3142 cm^−1).

[7] = Saccharide sensing, absorbance and fluorescence response
Experimental: Solvents including MeCN, MeOH, EtOH, DMSO and buffer were initially screened for sugar sensing. […] DMSO mixtures were chosen for further studies.
The final pH 7.4 phosphate buffer concentration was 12.5 mM.

[8] = Saccharide sensing, response to ribose; conditions: DMSO:buffer 1:1, entire concentration range investigated
Experimental: The spectral behavior of both compounds 51 and 53 in the presence of saccharides was further investigated in both 1:1 and 1:9 DMSO-buffer (final pH 7.4 phosphate buffer concentration of 12.5 mM) solutions. Both bis-boronic acids responded to binding of sugars through a red shift in their emission and the expected increase in fluorescence intensity.
FIGS. 37A-37D show the response of bis-boronic acid 51 to fructose, ribose and glucose under the two solvent conditions mentioned above. […] At high sugar concentrations, the response for all three sugars converged. […] An approximately 1.5-fold increase in both absorbance and fluorescence was observed over the entire concentration range investigated. Binding of all three sugars occurred at lower concentrations as compared to the 1:9 DMSO:buffer system, with the response of both ribose and fructose having already plateaued at 10 mM, the lowest concentration investigated. Unlike the 1:9 solvent system, there were significant spectral differences in the responses toward different sugars (FIG. 37C compared to FIG. 37A).

[9] = Saccharide sensing, response to fructose; conditions: DMSO:buffer 1:9; estimated from 140-fold fluorescence and 3-fold absorbance increase
[10] = DMSO:buffer 1:1, pH 7.4 phosphate buffer 12.5 mM
[11] = DMSO:buffer 1:9, pH 7.4 phosphate buffer 12.5 mM
[12] = DMSO:buffer 1:9, high sugar concentrations, all sugars

Structure (SMILES): N=c1ccc2c(ccc3c(-c4ccccc4C(=O)O)c4ccc(N)cc4oc32)c1 [Compound 50]
quantum yield ([1]; DMSO buffer 1:9): 19%
red shift of maximum absorption versus rhodamine 110 ([1]; DMSO buffer 1:9): 40 nm
red shift of maximum emission versus rhodamine 110 ([1]; DMSO buffer 1:9): ~100 nm
Abs [1, 10]: 542 nm
Brightness [1, 10]: 6298
Em [1, 10]: 630 nm
Ex [1, 10]: 542 nm
Q.Y. [1, 10]: 0.30
ε [1, 10]: 21064 M⁻¹ cm⁻¹
Abs [1, 11]: 535 nm
Brightness [1, 11]: 8083
Em [1, 11]: 628 nm
Ex [1, 11]: 534 nm
Q.Y. [1, 11]: 0.19
ε [1, 11]: 42701 M⁻¹ cm⁻¹

Structure (SMILES): COC(=O)c1ccccc1-c1c2ccc3cccc(O)c3c2oc2c1ccc1cccc(=O)c12 [Compound 8]
bathochromic shift in the absorption spectrum [2]: 103 nm
bathochromic shift in the fluorescence emission [2]: 128 nm
fluorescence emission ([3]; 15 μM, 90% aqueous, 10% DMSO, instrument range to 850 nm): not observed

Structure (SMILES): Cc1ccc(C)c(-c2c3ccc4cccc(O)c4c3oc3c2ccc2cccc(=O)c23)c1 [Compound 4a]
absorption in the blood solution ([4]; blood solution): clearly visible and remained stable over extended periods of time

Structure (SMILES): O=C1OC2(c3ccccc31)c1ccc3cccc(O)c3c1Oc1c2ccc2cccc(O)c12 [Compound 7]
longest wavelength emission ([3]; NaOH (pH 12), anion/dianion/phenoxide, 15 μM, 90% aqueous, 10% DMSO): either too weak to be detected or, more likely, beyond the working range of the instrument
form in solution ([5]; 1:9 DMSO:buffer below physiological pH of 7.4): colorless lactone

Structure (SMILES): O=C(O)c1ccccc1-c1c2ccc(NCc3ccccc3B(O)O)cc2oc2c1ccc1cc(=NCc3ccccc3B(O)O)ccc12 [Compound 51]
increase in absorbance [7, 12]: ~2 fold
increase in fluorescence [7, 12]: greater than 5 fold
increase in absorbance [8]: approximately 1.5 fold
increase in fluorescence [8]: approximately 1.5 fold
Abs [1, 10]: 579 nm
Brightness [1, 10]: 8037
Em [1, 10]: 643 nm
Ex [1, 10]: 580 nm
Q.Y. [1, 10]: 0.35
ε [1, 10]: 23096 M⁻¹ cm⁻¹
Abs [1, 11]: 560 nm
Brightness [1, 11]: 3032^e
Em [1, 11]: 638 nm
Ex [1, 11]: 568 nm
Q.Y. [1, 11]: 0.15
ε [1, 11]: 20326 M⁻¹ cm⁻¹

Structure (SMILES): O=C(O)c1ccccc1-c1c2ccc3cc(NCc4ccccc4B(O)O)ccc3c2oc2c1ccc1cc(=NCc3ccccc3B(O)O)ccc12 [Compound 53]
increase in emission ([7]; DMSO:buffer 1:1, all three sugars, emission at 720 nm, excitation at 640 nm): ~5 fold
quantum yield after binding [9]: 0.186

Structure (SMILES): COC(=O)c1ccccc1-c1c2ccc(=O)cc-2oc2c1ccc1cccc(N)c12 [Compound 15e]
pH titration of absorption ([5]; low pH): increased long wavelength absorption and decreased short wavelength absorption at low pH

Next, values leading:

bathochromic shift in emission wavelength ([3]; anion 15h compared to anion 20c): 130 nm
Stokes shift ([3]; anion/phenoxide in NaOH (pH 12)): about 165 nm
fluorescence emission ([3]; anion, DMSO:aqueous base 1:9): 760 nm
Stokes shift ([3]; anionic form, NIR emission at 760 nm): 160 nm
red-shift of absorbance maximum [5]: 50 nm
absorbance maximum ([5]; anion, DMSO:aqueous base 1:9): 599 nm
Structure (SMILES): COC(=O)c1ccccc1-c1c2ccc(=O)cc-2oc2c1ccc1cccc(O)c12 [Compound 15h]

absorbance maximum [6]: 620 nm
emission maximum [6]: 770 nm
time emission remained stable ([4]; 5% whole blood): at least 1 hour
Structure (SMILES): COC(=O)c1ccccc1-c1c2ccc(=[N+](C)C)cc-2oc2c1ccc1cccc(O)c12 [Compound 15d]

bathochromic shift in the absorption spectrum [2]: 15 nm
bathochromic shift in the fluorescence emission [2]: 32 nm
red-shift of absorbance maximum [5]: 15 nm
Structure (SMILES): COC(=O)c1ccccc1-c1c2ccc(=O)cc-2oc2c1ccc1cccc(O)c12 [Compound 15a]
